Like-named read-outs stand apart in the source and are kept apart here.
Assays:
carragenin-induced edema = assay: Carragenin-induced edema test (Winter); type: in vivo, rat
Procedure: This effect was measured with an experimental model reproducing acute inflammation in rats: the carragenin-induced edema test according to C.

gastric mucosa = assay: Gastric tolerance (ulcerogenic activity); type: in vivo, male Wistar rats; conditions: 4 days; for Mean Severity: scale 0-5; for Gastric Damage index: vehicle 8
Procedure: This was studied by conducting tests of ulcerogenic activity in male Wistar rats, weighing 180 g on the average, in groups of 10 animals each. Three doses of each substance were given, and one group of animals was treated with vehicle only in a volume of 10 ml/kg bodyweight. Each dose was given orally for four consecutive days; on the fifth day, the rats were killed and autopsied. The ulcerogenic effect was assessed according to the following scale:
(1) each hemorrhage point ≥1 mm was evaluated as 1 lesion
(2) hemorrhage points smaller than 1 mm were counted as follows:
(b) from 1 to 19:2 lesions
(c) from 1 to 29:3 lesions
(2) gastric mucosa irritation: 1
(3) hemorrahge points <1 mm: 2
(4) hemorrhage points between 1 and 3 mm: 3
(5) hemorrhage points >3 mm: 4
This scale was used to calculate the following gastric damage index: [formula]

in vivo [1] = conditions: mouse, mice
[2] = system: human platelet aggregation (PRP); assay: Human platelet aggregation in vitro induced by ADP, adrenalin, collagen or arachidonate; type: cell-based; conditions: Homo sapiens
Procedure: Blood samples (20 ml) were obtained by venal puncture of the antecubital fossa using plastic syringes containing trisodium citrate as anticoagulant (final concentration 0.19% w/v). Platelet rich plasma (PRP) was harvested after slow centrifugation at 170 g for 12 min. and 0.2 ml aliquots were dispensed into plastic cuvettes and stored at room temperature throughout the experiment.
Aliquots of 0.2 ml PRP from each sample were treated with ADP, adrenalin, collagen or arachidonate, until the threshold concentrations of these aggregating agents had been reached. The threshold concentration is defined as the minimum whcih will produce irreversible aggregation. Once established, the threshold concentration was used to challenge test samples of each of the 2 test compounds or vehicle (DMSO) which had been incubated for 1 min. at 37 C. in the holding cell of the agregometer, prior to addition of the aggregating agent.
This was reported as the final concentration in the PRP after addition of 2.5-10 ul of test substance.

Solubility = type: physicochemical; conditions: common organic solvents
in vivo [3] = conditions: rat, rats
[4] = system: rat platelet-rich plasma (ADP-induced platelet aggregation); assay: Anti-platelet aggregation activity in vitro (Born's method), rat platelet-rich plasma, ADP-induced; type: cell-based
Procedure: Preparations (A), (B), (C), (D), (E) and (F) were administered "in vivo" orally and/or parenterally in 0.5% carboxymethylcellulose suspensions in physiological saline at neutral pH. When tested "in vitro", they were finely dispersed in neutral pH physiological saline.
This was studied "in vitro" following Born's method (Born G. W. R., Nature, 194, 937 (1962)) and inducing platelet aggregation with ADP.
Platelet-rich plasma was obtained by centrifugation for 10 minutes at 2,000 rpm of 9 parts rat blood to 1 part 3.13% sodium citrate solution. In performing the aggregation test, 0.2 ml of platelet rich plasm was mixed with a 0.9% NaCl solution to which the test substance was added to a final volume of 0.6 ml; the resulting mixture was incubated at 27° C. for 3 minutes. After inducement with ADP, aggregation was measured continuously with an Elvi 840 Aggregometer (Elvi Logos-Milan) to follow its course. The anti-aggregant effects were determined from the difference in the light transmission of the sample with respect to an ADP control.
Table I reports the platelet aggregation inhibition using different doses of the test compounds at a constant ADP concentration.

Cc1ccc(C(=O)c2ccc(CC(=O)OCCn3cnc4c3c(=O)n(C)c(=O)n4C)n2C)cc1 [(A), 1-Methyl-5-p-methylbenzoylpyrrol-2-acetate of 7-(2-oxyethyl)theophylline]
% Edema Inhibition (carragenin-induced edema; I.P., 10 mg/kg, 3 h): 35,0%
% Edema Inhibition (carragenin-induced edema; I.P., 10 mg/kg, 6 h): 26,0%
% Edema Inhibition (carragenin-induced edema; I.P., 10 mg/kg, 24 h): 0,0%
% Edema Inhibition (carragenin-induced edema; I.P., 50 mg/kg, 3 h): 54,0%
% Edema Inhibition (carragenin-induced edema; I.P., 50 mg/kg, 6 h): 40,0%
% Edema Inhibition (carragenin-induced edema; I.P., 50 mg/kg, 24 h): 0,0%
% Edema Inhibition (carragenin-induced edema; I.P., 100 mg/kg, 3 h): 65,0%
% Edema Inhibition (carragenin-induced edema; I.P., 100 mg/kg, 6 h): 56,1%
% Edema Inhibition (carragenin-induced edema; I.P., 100 mg/kg, 24 h): 0,0%
% Edema Inhibition (carragenin-induced edema; OS, 10 mg/kg, 3 h): 34,6%
% Edema Inhibition (carragenin-induced edema; OS, 10 mg/kg, 6 h): 22,2%
% Edema Inhibition (carragenin-induced edema; OS, 10 mg/kg, 24 h): 0,0%
% Edema Inhibition (carragenin-induced edema; OS, 50 mg/kg, 3 h): 52,0%
% Edema Inhibition (carragenin-induced edema; OS, 50 mg/kg, 6 h): 41,1%
% Edema Inhibition (carragenin-induced edema; OS, 50 mg/kg, 24 h): 0,0%
% Edema Inhibition (carragenin-induced edema; OS, 100 mg/kg, 3 h): 62,0%
% Edema Inhibition (carragenin-induced edema; OS, 100 mg/kg, 6 h): 57,3%
% Edema Inhibition (carragenin-induced edema; OS, 100 mg/kg, 24 h): 10,0%
% incidence 10 (gastric mucosa; 50 mg/kg oral): 6 %/10
Gastric Damage index, second figure (after +; difference from vehicle) (gastric mucosa; 50 mg/kg oral): 1
Mean No. lesions (gastric mucosa; 50 mg/kg oral): 1
Mean Severity (gastric mucosa; 50 mg/kg oral): 2
Gastric Damage index (gastric mucosa; 50 mg/kg oral): 9
% incidence 10 (gastric mucosa; 100 mg/kg oral): 8 %/10
Gastric Damage index, second figure (after +; difference from vehicle) (gastric mucosa; 100 mg/kg oral): 4
Mean No. lesions (gastric mucosa; 100 mg/kg oral): 2
Mean Severity (gastric mucosa; 100 mg/kg oral): 2
Gastric Damage index (gastric mucosa; 100 mg/kg oral): 12
% incidence 10 (gastric mucosa; 200 mg/kg oral): 8 %/10
Gastric Damage index, second figure (after +; difference from vehicle) (gastric mucosa; 200 mg/kg oral): 6
Mean No. lesions (gastric mucosa; 200 mg/kg oral): 3
Mean Severity (gastric mucosa; 200 mg/kg oral): 3
Gastric Damage index (gastric mucosa; 200 mg/kg oral): 14
LD50 (in vivo [1]; ip, I.P.): 950 mg/kg
LD50 (in vivo [1]; po, OS): 1270 mg/kg
minimal effective concentration ([2]; ATH-8, 1 min, ADP, volunteer 3, read-out: Minimum Effective Concentration (Final in PRP)): 100 µM
minimal effective concentration ([2]; ATH-8, 1 min, Adrenalin, volunteer 3, read-out: Minimum Effective Concentration (Final in PRP)): 10 µM
minimal effective concentration ([2]; ATH-8, 1 min, Arachidonate, volunteer 3, read-out: Minimum Effective Concentration (Final in PRP)): 250 µM
minimal effective concentration ([2]; ATH-8, 1 min, Collagen, volunteer 3, read-out: Minimum Effective Concentration (Final in PRP)): 700 µM
minimal effective concentration ([2]; Platelet, 1 min, ADP, volunteer 1, read-out: Minimum Effective Concentration (Final in PRP)): 10 µM
minimal effective concentration ([2]; Platelet, 1 min, ADP, volunteer 2 (donor gamma), read-out: Minimum Effective Concentration (Final in PRP)): 10 µM
minimal effective concentration ([2]; Platelet, 1 min, Adrenalin, range over 3 volunteers, read-out: Minimum Effective Concentration Range): 10 µM
minimal effective concentration ([2]; Platelet, 1 min, Adrenalin, volunteer 1, read-out: Minimum Effective Concentration (Final in PRP)): 10 µM
minimal effective concentration ([2]; Platelet, 1 min, Adrenalin, volunteer 2 (donor gamma), read-out: Minimum Effective Concentration (Final in PRP)): 10 µM
minimal effective concentration ([2]; Platelet, 1 min, Arachidonate, volunteer 1, read-out: Minimum Effective Concentration (Final in PRP)): 100 µM
minimal effective concentration ([2]; Platelet, 1 min, Arachidonate, volunteer 2 (donor gamma), read-out: Minimum Effective Concentration (Final in PRP)): 10 µM
minimal effective concentration ([2]; Platelet, 1 min, Collagen, volunteer 1, read-out: Minimum Effective Concentration (Final in PRP)): 100 µM
minimal effective concentration ([2]; Platelet, 1 min, Collagen, volunteer 2 (donor gamma), read-out: Minimum Effective Concentration (Final in PRP)): 550 µM
Solubility (Solubility): Soluble in common organic solvents
LD50 (in vivo [3]; ip, I.P.): 800 mg/kg
LD50 (in vivo [3]; po, OS): 1150 mg/kg
% Inhibition ([4]; ADP 2 μmol/l, dose 1 V/ml (Table II)): 42%
% Inhibition ([4]; ADP 5 μmol/l, dose 1 V/ml (Table II)): 30%
% Inhibition ([4]; ADP 7.08 μmol/l, dose 1 /ml (Table I)): 25%
% Inhibition ([4]; ADP 7.08 μmol/l, dose 2,5 /ml (Table I)): 100%
% Inhibition ([4]; ADP 7.08 μmol/l, dose 5 /ml (Table I)): 100%

From patent publication US4618612A (Medosan Industrie Biochimiche Riunite S.p.A., priority 1983, dated 1986)
